Data from ChEMBL document CHEMBL1149083, “CoMFA and CoMSIA 3D-QSAR studies on S(6)-(4-nitrobenzyl)mercaptopurine riboside (NBMPR) analogs as inhibitors of human equilibrative nucleoside transporter 1 (hENT1)” (Bioorg Med Chem Lett, 2009).

target: T1, Equilibrative nucleoside transporter 1 (Homo sapiens, UniProt Q99808); assay: Inhibition of human ENT1
T1 sequence (Q99808 whole entry): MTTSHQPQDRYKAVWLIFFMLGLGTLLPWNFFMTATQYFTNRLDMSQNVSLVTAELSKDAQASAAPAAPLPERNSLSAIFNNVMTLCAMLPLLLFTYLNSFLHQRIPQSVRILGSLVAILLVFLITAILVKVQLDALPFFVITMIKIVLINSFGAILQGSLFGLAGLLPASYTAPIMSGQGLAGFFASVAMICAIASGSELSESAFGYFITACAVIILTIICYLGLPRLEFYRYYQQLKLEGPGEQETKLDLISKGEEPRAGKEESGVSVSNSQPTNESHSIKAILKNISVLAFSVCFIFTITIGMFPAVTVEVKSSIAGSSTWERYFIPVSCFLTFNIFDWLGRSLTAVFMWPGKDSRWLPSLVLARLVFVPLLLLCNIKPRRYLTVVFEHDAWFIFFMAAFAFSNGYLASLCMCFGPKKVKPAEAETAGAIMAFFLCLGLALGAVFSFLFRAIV

Ki [nM] | SMILES
19.1 | OC[C@H]1O[C@@H](n2cnc3c(SCc4cccc(C(F)(F)F)c4)ncnc32)[C@H](O)[C@@H]1O
19.5 | OC[C@H]1O[C@@H](n2cnc3c(SCc4ccccc4I)ncnc32)[C@H](O)[C@@H]1O
24 | OC[C@H]1O[C@@H](n2cnc3c(SCc4ccccc4F)ncnc32)[C@H](O)[C@@H]1O
16.2 | Cc1cccc(CSc2ncnc3c2ncn3[C@@H]2O[C@H](CO)[C@@H](O)[C@H]2O)c1
115 | O=[N+]([O-])c1ccccc1CSc1ncnc2c1ncn2[C@@H]1O[C@H](CO)[C@@H](O)[C@H]1O
46.8 | COC(=O)c1ccc(CSc2ncnc3c2ncn3[C@@H]2O[C@H](CO)[C@@H](O)[C@H]2O)cc1
4.57 | N#Cc1ccc(CSc2ncnc3c2ncn3[C@@H]2O[C@H](CO)[C@@H](O)[C@H]2O)cc1
10000 | CC(C)(C)c1ccc(CSc2ncnc3c2ncn3[C@@H]2O[C@H](CO)[C@@H](O)[C@H]2O)cc1
11.5 | OC[C@H]1O[C@@H](n2cnc3c(SCc4ccc(Br)cc4)ncnc32)[C@H](O)[C@@H]1O
20 | OC[C@H]1O[C@@H](n2cnc3c(SCc4ccccc4)ncnc32)[C@H](O)[C@@H]1O [6-BENZYLTHIOINOSINE]
18.2 | OC[C@H]1O[C@@H](n2cnc3c(SCc4cccc(Cl)c4)ncnc32)[C@H](O)[C@@H]1O
87.1 | OC[C@H]1O[C@@H](n2cnc3c(SCc4c(F)cccc4Cl)ncnc32)[C@H](O)[C@@H]1O
14.8 | OC[C@H]1O[C@@H](n2cnc3c(SCc4ccc(Cl)cc4)ncnc32)[C@H](O)[C@@H]1O
7.08 | OC[C@H]1O[C@@H](n2cnc3c(SCc4ccc(OC(F)(F)F)cc4)ncnc32)[C@H](O)[C@@H]1O
67.6 | Cc1ccccc1CSc1ncnc2c1ncn2[C@@H]1O[C@H](CO)[C@@H](O)[C@H]1O
1910 | Cc1cc(C)c(CSc2ncnc3c2ncn3[C@@H]2O[C@H](CO)[C@@H](O)[C@H]2O)c(C)c1
15.1 | Cc1ccc(CSc2ncnc3c2ncn3[C@@H]2O[C@H](CO)[C@@H](O)[C@H]2O)cc1
34.7 | COc1ccc(CSc2ncnc3c2ncn3[C@@H]2O[C@H](CO)[C@@H](O)[C@H]2O)cc1
151 | OC[C@H]1O[C@@H](n2cnc3c(SCc4ccccc4Br)ncnc32)[C@H](O)[C@@H]1O
1.78 | O=[N+]([O-])c1cccc(CSc2ncnc3c2ncn3[C@@H]2O[C@H](CO)[C@@H](O)[C@H]2O)c1
20.9 | OC[C@H]1O[C@@H](n2cnc3c(SCc4cccc(Br)c4)ncnc32)[C@H](O)[C@@H]1O
3.8 | OC[C@H]1O[C@@H](n2cnc3c(SCc4ccc(I)cc4)ncnc32)[C@H](O)[C@@H]1O
4.37 | OC[C@H]1O[C@@H](n2cnc3c(SCc4ccc(Cl)cc4Cl)ncnc32)[C@H](O)[C@@H]1O
38.9 | N#Cc1ccccc1CSc1ncnc2c1ncn2[C@@H]1O[C@H](CO)[C@@H](O)[C@H]1O
117 | OC[C@H]1O[C@@H](n2cnc3c(SCc4ccccc4Cl)ncnc32)[C@H](O)[C@@H]1O
12.9 | OC[C@H]1O[C@@H](n2cnc3c(SCc4cccc(F)c4)ncnc32)[C@H](O)[C@@H]1O
12.6 | OC[C@H]1O[C@@H](n2cnc3c(SCc4ccc(Cl)c(Cl)c4)ncnc32)[C@H](O)[C@@H]1O
36.3 | N#Cc1cccc(CSc2ncnc3c2ncn3[C@@H]2O[C@H](CO)[C@@H](O)[C@H]2O)c1
